Patent publication US11504441B2, “Radiolabeled compounds targeting the prostate-specific membrane antigen” (PROVINCIAL HEALTH SERVICES AUTHORITY, priority 2019, dated 2022)

Tests used:
[1] = tested on: PSMA-expressing LNCaP cancer xenografts; details: mouse, in vivo
[2] = in vivo; details: male, NODSCID 1L2RγKO, mouse, iv, total radioactivity, kidney uptake

uptake in kidney and salivary gland compared to HTK03041 [1] | tissue uptake at 1 h [2] [%ID/g] | SMILES
significantly decreases the uptake | – | O=C(O)CCC[C@H](NC(=O)N[C@@H](CCCCNC(=O)[C@H](Cc1c2ccccc2cc2ccccc12)NC(=O)[C@H]1CC[C@H](CNC(=O)CN2CCN(CC(=O)O)CCN(CC(=O)O)CCN(CC(=O)O)CC2)CC1)C(=O)O)C(=O)O [HTK03149]
– | 170 | O=C(O)CC[C@H](NC(=O)N[C@@H](CCCCNC(=O)[C@H](Cc1c2ccccc2cc2ccccc12)NC(=O)C1CCC(CNC(=O)CN2CCN(CC(=O)O)CCN(CC(=O)O)CCN(CC(=O)O)CC2)CC1)C(=O)O)C(=O)O (some centres unmarked) [HTK03041]
